Experiments:
[1] = system: Uromyces viciae-fabae; assay: Uromyces viciae-fabae / field bean / leaf disc preventative (faba-bean rust); format: in vivo; details: foliar, 288 h, 100 ppm in the applied formulation, field bean leaf discs, inoculated two hours after application, vs untreated, 12 days after application, read-out: disease control
Description: (§1) Leaf disks or leaf segments of various plant species are cut from plants grown in a greenhouse. The cut leaf disks or segments are placed in multiwell plates (24-well format) onto water agar. The leaf disks are sprayed with a test solution before (preventative) or after (curative) inoculation. Compounds to be tested are prepared as DMSO solutions (max. 10 mg/ml) which are diluted to the appropriate concentration with 0.025% Tween20 just before spraying. The inoculated leaf disks or segments are incubated under defined conditions (temperature, relative humidity, light, etc.) according to the respective test system. A single evaluation of disease level is carried out 3 to 14 days after inoculation, depending on the pathosystem. Percent disease control relative to the untreated check leaf disks or segments is then calculated.
Example 5: Fungicidal Activity Against Uromyces viciae-fabael Field Bean/Leaf Disc Preventative (Faba-Bean Rust)
Field bean leaf discs are placed on water agar in multiwell plates (96-well format) and 10 μl of the Formulated test compound diluted in acetone and a spreader pipetted onto the leaf disc. Two hours after application leaf discs are inoculated by spraying a spore suspension on the lower leaf surface. The leaf discs are incubated in a climate cabinet at 22° C. with 18 hour day and 70% relative humidity. The activity of a compound is assessed as percent disease control compared to untreated when an appropriate level of disease damage appears in untreated check leaf disks (12 days after application).
The following compounds at 100 ppm in the applied Formulation give at least 80% disease control in this test when compared to untreated control leaf discs under the same conditions, which show extensive disease development.

[2] = system: Glomerella lacenarium (Colletotrichum lacenarium); assay: Glomerella lacenarium (Colletotrichum lacenarium) liquid culture / cucumber / preventative (anthracnose); format: cell-based; details: 20 ppm, liquid culture in PDB, 24° C., inhibition of growth measured photometrically 3 to 4 days after application, vs untreated, read-out: disease control
How it was run: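 Cryopreserved conidia in potato dextrose broth were added to test compound in a 96-well microtiter plate and incubated at 24 °C. Growth inhibition read photometrically 3–4 days after application, as percent activity versus untreated check.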

[3] = system: Puccinia recondita f. Sp. Tritici; assay: Puccinia recondita f. sp. tritici / wheat / leaf disc preventative (brown rust); format: in vivo; details: foliar, 200 ppm in the applied formulation, wheat leaf segments cv. Kanzler, inoculated 1 day after application, vs untreated, 7 to 9 days after application, read-out: disease control
How it was run: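 Preventative leaf-segment test on wheat cv. Kanzler: formulated compound diluted in water was sprayed onto segments on agar, with spore inoculation 1 day later. Incubated at 19° C, 75% rh, 12 h light/12 h dark; percent disease control versus untreated scored 7 to 9 days after application.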

[4] = system: Puccinia recondita f. Sp. Tritici; assay: Puccinia recondita f. sp. tritici / wheat / leaf disc curative (brown rust); format: in vivo; details: foliar, 200 ppm in the applied formulation, wheat leaf segments cv. Kanzler, compound applied 1 day after inoculation, vs untreated, 6 to 8 days after application, read-out: disease control
Description: as §1
Example 2: Fungicidal Activity Against Puccinia recondita f. sp. tritici/Wheat/Leaf Disc Curative (Brown Rust)
Wheat leaf segments cv. Kanzler are placed on agar in multiwell plates (24-well format). The leaf segments are then inoculated with a spore suspension of the fungus. Plates were stored in darkness at 19° C. and 75% relative humidity. The Formulated test compound diluted in water was applied 1 day after inoculation. The leaf segments were incubated at 19° C. and 75% relative humidity under a light regime of 12 hours light/12 hours darkness in a climate cabinet and the activity of a compound was assessed as percent disease control compared to untreated when an appropriate level of disease damage appears in untreated check leaf segments (6 to 8 days after application).
The following compounds at 200 ppm in the applied Formulation give at least 80% disease control in this test when compared to untreated control leaf disks under the same conditions, which show extensive disease development.

[5] = system: Phakopsora pachyrhizi; assay: Phakopsora pachyrhizi / soybean / leaf disc preventative (Asian soybean rust); format: in vivo; details: foliar, 200 ppm in the applied formulation, soybean leaf disks, inoculated one day after application, vs untreated, 12 to 14 days after application, read-out: disease control
How it was run: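 Soybean leaf discs on water agar sprayed with formulated compound diluted in water, then inoculated one day later with spore suspension on the lower surface. Held 24-36 h dark at 20 °C, 75% rh, then 12 h light/day; percent disease control versus untreated scored 12-14 days after application.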

| SMILES | pest or weed control at 100 ppm [1] [%] | further results |
| --- | --- | --- |
| O=C(Nc1ccc(-c2noc(C(F)(F)F)n2)cc1)c1ccccc1 [Compound 1.3, N-[4-[5-(trifluoromethyl)-1,2,4-oxadiazol-3-yl]phenyl]benzamide] | ≥ 80 | – |
| O=C(Nc1ccc(-c2noc(C(F)(F)F)n2)cc1)c1cccn2ccnc12 [Compound 1.7, N-[4-[5-(trifluoromethyl)-1,2,4-oxadiazol-3-yl]phenyl]imidazo[1,2-a]pyridine-8-carboxamide] | ≥ 80 | – |
| O=C(Nc1ccc(-c2noc(C(F)(F)F)n2)cc1)c1cn(C2CC2)c2cc(Cl)c(F)cc2c1=O [Compound 1.8, 7-chloro-1-cyclopropyl-6-fluoro-4-oxo-N-[4-[5-(trifluoromethyl)-1,2,4-oxadiazol-3-yl]phenyl]quinoline-3-carboxamide] | ≥ 80 | – |
| O=C(Nc1ccc(-c2noc(C(F)(F)F)n2)cc1)c1cccc2c1OCCO2 [Compound 1.9, N-[4-[5-(trifluoromethyl)-1,2,4-oxadiazol-3-yl]phenyl]-2,3-dihydro-1,4-benzodioxine-5-carboxamide] | ≥ 80 | – |
| CS(=O)(=O)CC(=O)Nc1ccc(-c2noc(C(F)(F)F)n2)cc1 [Compound 1.10, 2-methylsulfonyl-N-[4-[5-(trifluoromethyl)-1,2,4-oxadiazol-3-yl]phenyl]acetamide] | ≥ 80 | inhibition of growth at 20 ppm [2]: ≥ 80% |
| O=C(NC(C(=O)Nc1ccc(-c2noc(C(F)(F)F)n2)cc1)c1ccccc1)OCc1ccccc1 (stereo not shown) [Compound 1.14, benzyl N-[2-oxo-1-phenyl-2-[4-[5-(trifluoromethyl)-1,2,4-oxadiazol-3-yl]anilino]ethyl] carbamate] | ≥ 80 | – |
| N#Cc1cc(F)c(C(=O)Nc2ccc(-c3noc(C(F)(F)F)n3)cc2)c(F)c1 [Compound 1.15, 4-cyano-2,6-difluoro-N-[4-[5-(trifluoromethyl)-1,2,4-oxadiazol-3-yl]phenyl]benzamide] | ≥ 80 | inhibition of growth at 20 ppm [2]: ≥ 80% |
| O=C(C=Cc1cccc2ccccc12)Nc1ccc(-c2noc(C(F)(F)F)n2)cc1 [Compound 1.17, 3-(1-naphthyl)-N-[4-[5-(trifluoromethyl)-1,2,4-oxadiazol-3-yl]phenyl]prop-2-enamide] | ≥ 80 | – |
| COc1cc(OC)nc(Oc2ncccc2C(=O)Nc2ccc(-c3noc(C(F)(F)F)n3)cc2)n1 [Compound 1.22, 2-(4,6-dimethoxypyrimidin-2-yl)oxy-N-[4-[5-(trifluoromethyl)-1,2,4-oxadiazol-3-yl]phenyl]pyridine-3-carboxamide] | ≥ 80 | – |
| COc1ccc(Br)cc1C(C)C(=O)Nc1ccc(-c2noc(C(F)(F)F)n2)cc1 (stereo not shown) [Compound 1.24, 2-(5-bromo-2-methoxy-phenyl)-N-[4-[5-(trifluoromethyl)-1,2,4-oxadiazol-3-yl]phenyl] propanamide] | ≥ 80 | – |
| Cn1nc(C(=O)Nc2ccc(-c3noc(C(F)(F)F)n3)cc2)c(Cl)c1OC(F)F [Compound 1.25, 4-chloro-5-(difluoromethoxy)-1-methyl-N-[4-[5-(trifluoromethyl)-1,2,4-oxadiazol-3-yl]phenyl]pyrazole-3-carboxamide] | ≥ 80 | – |
| O=C(Nc1ccc(-c2noc(C(F)(F)F)n2)cc1)c1nccc2nnsc12 [Compound 1.28, N-[4-[5-(trifluoromethyl)-1,2,4-oxadiazol-3-yl]phenyl]thiadiazolo [5,4-c]pyridine-4-carboxamide] | ≥ 80 | – |
| CC(C)C(NC(=O)OC(C)(C)C)C1=NOC(C(=O)Nc2ccc(-c3noc(C(F)(F)F)n3)cc2)C1 (stereo not shown) [Compound 1.30, tert-butyl N-[2-methyl-1-[5-[[4-[5-(trifluoromethyl)-1,2,4-oxadiazol-3-yl]phenyl]carbamoyl]-4,5-dihydroisoxazol-3-yl]propyl]carbamate] | ≥ 80 | – |
| Cn1nc(C(C)(C)C)cc1C(=O)Nc1cccc(C(=O)Nc2ccc(-c3noc(C(F)(F)F)n3)cc2)c1 [Compound 1.33, 5-tert-butyl-2-methyl-N-[3-[[4-[5-(trifluoromethyl)-1,2,4-oxadiazol-3-yl]phenyl]carbamoyl]phenyl]pyrazole-3-carboxamide] | ≥ 80 | – |
| O=C(Nc1ccc(-c2noc(C(F)(F)F)n2)cc1)c1cc(F)cc2nnsc12 [Compound 1.34, 5-fluoro-N-[4-[5-(trifluoromethyl)-1,2,4-oxadiazol-3-yl]phenyl]-1,2,3-benzothiadiazole-7-carboxamide] | ≥ 80 | – |
| O=C(COc1ccc(Oc2cccc(F)c2)cc1)Nc1ccc(-c2noc(C(F)(F)F)n2)cc1 [Compound 1.35, 2-[4-(3-fluorophenoxy)phenoxy]-N-[4-[5-(trifluoromethyl)-1,2,4-oxadiazol-3-yl]phenyl]acetamide] | ≥ 80 | – |
| Cc1sc(Nc2ccccc2)nc1C(=O)Nc1ccc(-c2noc(C(F)(F)F)n2)cc1 [Compound 1.37, 2-anilino-5-methyl-N-[4-[5-(trifluoromethyl)-1,2,4-oxadiazol-3-yl]phenyl]thiazole-4-carboxamide] | ≥ 80 | – |
| O=C(Nc1ccc(-c2noc(C(F)(F)F)n2)cc1)c1cccc(OCc2ccccc2)c1 [Compound 1.38, 3-benzyloxy-N-[4-[5-(trifluoromethyl)-1,2,4-oxadiazol-3-yl]phenyl]benzamide] | ≥ 80 | – |
| CC1Cc2c(Br)ccc(C(=O)Nc3ccc(-c4noc(C(F)(F)F)n4)cc3)c2S1(=O)=O (stereo not shown) [Compound 1.39, 4-bromo-2-methyl-1,1-dioxo-N-[4-[5-(trifluoromethyl)-1,2,4-oxadiazol-3-yl]phenyl]-2,3-dihydrobenzo-thiophene-7-carboxamide] | ≥ 80 | inhibition of growth at 20 ppm [2]: ≥ 80% |
| O=C(Nc1ccc(-c2noc(C(F)(F)F)n2)cc1)C(F)(F)c1ccc(Br)cc1 [Compound 1.40, 2-(4-bromophenyl)-2,2-difluoro-N-[4-[5-(trifluoromethyl)-1,2,4-oxadiazol-3-yl]phenyl]acetamide] | ≥ 80 | – |
| O=C(Nc1ccc(-c2noc(C(F)(F)F)n2)cc1)c1ccc(-n2ccnc2)cc1 [Compound 1.42, 4-imidazol-1-yl-N-[4-[5-(trifluoromethyl)-1,2,4-oxadiazol-3-yl]phenyl]benzamide] | ≥ 80 | – |
| O=C(Nc1ccc(-c2noc(C(F)(F)F)n2)cc1)c1cc(Br)nn1-c1ncccc1Cl [Compound 1.43, 5-bromo-2-(3-chloro-2-pyridyl)-N-[4-[5-(trifluoromethyl)-1,2,4-oxadiazol-3-yl]phenyl]pyrazole-3-carboxamide] | ≥ 80 | – |
| CC(=O)N(c1ccc(-c2noc(C(F)(F)F)n2)cc1)C(C)C(=O)NC(C)(C)C (stereo not shown) [Compound 1.59, 2-[N-acetyl-4-[5-(trifiuoromethyl)-1,2,4-oxadiazol-3-yl]anilino]-N-tert-butyl-propanamide] | ≥ 80 | – |
| CC(=O)N(c1ccc(-c2noc(C(F)(F)F)n2)cc1)C(C)(C)C(=O)NC(C)(C)C [Compound 1.61, 2-[N-acetyl-4-[5-(trifluoromethyl)-1,2,4-oxadiazol-3-yl]anilino]-N-tert-butyl-2-methyl-propanamide] | ≥ 80 | – |
| CC(=O)Nc1ccc(-c2noc(C(F)(F)F)n2)cn1 [Compound 2.29, N-[5-[5-(trifluoromethyl)-1,2,4-oxadiazol-3-yl]-2-pyridyl]acetamide] | – | pest or weed control at 200 ppm [3]: ≥ 80%; pest or weed control at 200 ppm [4]: ≥ 80%; pest or weed control at 200 ppm [5]: ≥ 80%; inhibition of growth at 20 ppm [2]: ≥ 80% |
